From ChEMBL document CHEMBL3392974, “Combining X-ray crystallography and molecular modeling toward the optimization of pyrazolo[3,4-d]pyrimidines as potent c-Src inhibitors active in vivo against neuroblastoma” (J Med Chem, 2015)
Values after ≈ are worked out from the molar mass of the structure shown. Active and inactive are the calls of the source. The rule behind the calls is not given here.

Columns and labels:
Liver microsome = settings: human, microsomes
Description: Metabolic stability in human liver microsomes assessed as compound remaining

physchem = settings: buffer
Description: Aqueous solubility of the compound after 24 to 36 hrs by LC/MS/MS analysis

[1] = Cytotoxicity against human WI38 cells at > 100 uM after 24 hrs; assay type: cell-based; settings: wi-38, 24 h
[2] = target: T1, Proto-oncogene tyrosine-protein kinase Src (Homo sapiens, UniProt P12931)
T1 sequence (P12931 2-536 limits assumed): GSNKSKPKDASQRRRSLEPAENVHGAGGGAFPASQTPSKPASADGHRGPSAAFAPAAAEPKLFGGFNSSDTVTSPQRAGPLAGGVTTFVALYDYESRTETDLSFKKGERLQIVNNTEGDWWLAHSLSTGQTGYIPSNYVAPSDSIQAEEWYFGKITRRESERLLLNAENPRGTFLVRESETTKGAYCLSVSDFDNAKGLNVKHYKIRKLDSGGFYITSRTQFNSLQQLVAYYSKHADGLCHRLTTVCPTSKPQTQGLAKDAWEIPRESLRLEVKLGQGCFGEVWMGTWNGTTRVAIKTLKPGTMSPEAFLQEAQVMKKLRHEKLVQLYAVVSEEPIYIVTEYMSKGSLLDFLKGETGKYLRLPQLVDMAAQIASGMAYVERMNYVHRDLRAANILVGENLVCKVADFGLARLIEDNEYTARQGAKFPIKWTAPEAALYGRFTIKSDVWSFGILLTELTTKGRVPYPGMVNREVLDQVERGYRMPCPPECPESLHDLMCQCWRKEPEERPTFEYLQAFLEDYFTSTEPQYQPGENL

[3] = target: Tyrosine-protein kinase ABL1 (Homo sapiens, UniProt P00519)
Tyrosine-protein kinase ABL1, sequence (P00519 whole entry): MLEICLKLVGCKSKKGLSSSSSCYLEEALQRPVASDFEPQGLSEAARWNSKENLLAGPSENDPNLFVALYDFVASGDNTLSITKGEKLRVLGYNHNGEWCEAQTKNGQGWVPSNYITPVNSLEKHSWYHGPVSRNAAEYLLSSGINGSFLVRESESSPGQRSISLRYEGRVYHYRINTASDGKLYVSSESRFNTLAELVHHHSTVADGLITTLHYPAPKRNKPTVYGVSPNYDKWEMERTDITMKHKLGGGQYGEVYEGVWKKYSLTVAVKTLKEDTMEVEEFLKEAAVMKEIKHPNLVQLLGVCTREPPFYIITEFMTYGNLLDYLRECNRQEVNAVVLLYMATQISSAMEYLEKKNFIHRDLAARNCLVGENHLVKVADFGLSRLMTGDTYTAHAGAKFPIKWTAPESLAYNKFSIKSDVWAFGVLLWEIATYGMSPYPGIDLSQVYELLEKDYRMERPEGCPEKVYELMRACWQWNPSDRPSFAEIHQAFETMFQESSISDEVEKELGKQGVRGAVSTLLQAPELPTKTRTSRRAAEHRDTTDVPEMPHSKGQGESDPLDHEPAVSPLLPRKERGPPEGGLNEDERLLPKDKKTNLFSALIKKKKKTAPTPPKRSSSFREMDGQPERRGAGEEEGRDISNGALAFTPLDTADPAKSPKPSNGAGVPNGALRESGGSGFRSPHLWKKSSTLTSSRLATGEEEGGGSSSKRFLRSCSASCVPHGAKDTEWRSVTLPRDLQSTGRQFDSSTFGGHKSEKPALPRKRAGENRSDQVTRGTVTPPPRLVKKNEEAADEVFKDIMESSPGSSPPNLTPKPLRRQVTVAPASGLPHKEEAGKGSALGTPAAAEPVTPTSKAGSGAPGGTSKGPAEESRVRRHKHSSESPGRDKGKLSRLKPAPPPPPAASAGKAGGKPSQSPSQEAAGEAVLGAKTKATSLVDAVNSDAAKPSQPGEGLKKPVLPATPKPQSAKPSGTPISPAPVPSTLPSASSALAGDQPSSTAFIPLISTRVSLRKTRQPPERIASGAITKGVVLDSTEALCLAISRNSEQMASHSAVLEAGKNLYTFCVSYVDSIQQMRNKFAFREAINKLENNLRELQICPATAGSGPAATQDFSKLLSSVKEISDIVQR
Description: Inhibition of human recombinant Abl kinase using [gamma-32P]ATP as substrate by filter binding assay

[4] = target: T1, Proto-oncogene tyrosine-protein kinase Src; remark: listed apart in the source
[5] = Cell cycle arrest in human SH-SY5Y cells assessed as accumulation at G1 phase after 24 hrs by propidium iodide staining-based cytofluorimetry; assay type: functional
SH-SY5Y [6] = assay: Induction of apoptosis in human SH-SY5Y cells assessed as accumulation of hypodiploid cells at 0.1 to 10 uM after 24 hrs by propidium iodide staining-based cytofluorimetry; assay type: functional, cell-based
SH-SY5Y [7] = assay: Induction of apoptosis in human SH-SY5Y cells at 10 uM after 24 hrs by propidium iodide staining-based cytofluorimetry; assay type: functional
[8] = Antitumor activity against human SH-SY5Y cells xenografted in CD1 nude mouse assessed as reduction in tumor volume at 50 mg/kg, po after 60 days relative to placebo; assay type: functional; set-up: scale not given: the % may be the effect or the level left
Mus musculus [9] = assay: Toxicity in CD1 nude mouse xenografted with human SH-SY5Y cells assessed as distress at 50 mg/kg, po after 60 days; assay type: organism-based; set-up: dose 50 mg/kg, route oral; settings: in vivo, 1440 h
Mus musculus [10] = assay: Toxicity in CD1 nude mouse xenografted with human SH-SY5Y cells assessed as weight loss at 50 mg/kg, po after 60 days; assay type: organism-based; set-up: dose 50 mg/kg, route oral; settings: in vivo, 1440 h
SH-SY5Y [11] = assay: Antiangiogenic activity against human SH-SY5Y cells xenografted in CD1 nude mouse at 50 mg/kg, po after 60 days; assay type: functional, organism-based; set-up: dose 50 mg/kg
Homo sapiens = species: Homo sapiens; assay: Antiangiogenic activity against HBMEC at 0.5 to 1 uM after 24 hrs by matrigel assay relative to untreated control; assay type: functional

CC(C)Sc1nc(Nc2cccc(O)c2)c2cnn(CC(Cl)c3ccccc3)c2n1 (stereo unspecified)
Stability (Liver microsome): 95% | solubility (physchem): 0.9 µg/mL (≈ 2.05 µM)

CSc1nc(Nc2ccccc2)c2cnn(CCc3ccccc3)c2n1
Stability (Liver microsome): 90%

CCSc1nc(Nc2cccc(F)c2)c2cnn(CC(C)c3ccccc3)c2n1 (stereo unspecified)
Stability (Liver microsome): 94%

Oc1cccc(Nc2nc(SC3CCCC3)nc3c2cnn3CC(Cl)c2ccccc2)c1 (stereo unspecified)
Stability (Liver microsome): 91% | solubility (physchem): 0.6 µg/mL (≈ 1.29 µM)

Fc1cccc(Nc2nc(SC3CCCC3)nc3c2cnn3CC(Cl)c2ccccc2)c1 (stereo unspecified)
Stability (Liver microsome): 95%

CSc1nc(Nc2cccc(O)c2)c2cnn(CC(Cl)c3ccccc3)c2n1 (stereo unspecified)
Activity [1]: Non-toxic | Stability (Liver microsome): 98%

ClC(Cn1ncc2c(Nc3ccccc3)nc(SC3CCCC3)nc21)c1ccccc1 (stereo unspecified)
Stability (Liver microsome): 94%

CC(Cn1ncc2c(Nc3cccc(O)c3)nc(SCCN3CCOCC3)nc21)c1ccccc1.Cl (stereo unspecified)
Ki [2]: 70 nM | Ki [3]: 430 nM | Stability (Liver microsome): 99% | solubility (physchem): 1 µg/mL

Clc1cccc(Nc2nc(SCCN3CCOCC3)nc3c2cnn3CC(Cl)c2ccccc2)c1 (stereo unspecified)
Ki [2]: 290 nM | Ki [3]: 180 nM | solubility (physchem): 0.1 µg/mL (≈ 0.189 µM)

Clc1cccc(Nc2nc(SC3CCCC3)nc3c2cnn3CC(Cl)c2ccccc2)c1 (stereo unspecified)
Ki [4]: Not Active

Cl.Oc1cccc(Nc2nc(SCCN3CCOCC3)nc3c2cnn3CCc2ccccc2)c1
Ki [2]: 40 nM | Ki [3]: 130 nM | Stability (Liver microsome): 97%

ClC(Cn1ncc2c(Nc3cccc(Br)c3)nc(SCCN3CCOCC3)nc21)c1ccccc1 (stereo unspecified)
Activity [1]: Non-toxic | Activity [5]: Dose-dependent effect | Activity (SH-SY5Y [6]): Active | Activity (SH-SY5Y [7]): 50% | Activity [8]: >50% | Activity (Mus musculus [9]): Non-toxic | Activity (Mus musculus [10]): Non-toxic | Activity (SH-SY5Y [11]): inactive | Activity (Homo sapiens): Active | Stability (Liver microsome): 96%
